According to PubChem BioAssay (NCI):
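Cultured in 96-well plates, cells were exposed to test compound for 48 hours across five concentrations. Here, GI50 denotes the concentration required for 50% inhibition of growth. TGI: total growth inhibition.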

What was measured:
Test in all cases: growth of human tumour cells (NCI), 48 h
NCI/ADR-RES ovarian = test system: NCI/ADR-RES ovarian
MDA-MB-435 = test system: MDA-MB-435
PC-3 prostate = test system: PC-3 prostate
K-562 leukemia = test system: K-562 leukemia
HCC-2998 colon = test system: HCC-2998 colon
OVCAR-4 ovarian = test system: OVCAR-4 ovarian
OVCAR-5 ovarian = test system: OVCAR-5 ovarian
HL-60(TB) leukemia = test system: HL-60(TB) leukemia
HS 578T breast = test system: HS 578T breast
HOP-62 NSCLC = test system: HOP-62 NSCLC
MALME-3M melanoma = test system: MALME-3M melanoma
786-0 renal = test system: 786-0 renal
SK-MEL-5 melanoma = test system: SK-MEL-5 melanoma
COLO 205 colon = test system: COLO 205 colon
SK-MEL-28 melanoma = test system: SK-MEL-28 melanoma
DU-145 prostate = test system: DU-145 prostate
A549 NSCLC = test system: A549 NSCLC
SNB-19 CNS = test system: SNB-19 CNS
UO-31 renal = test system: UO-31 renal
U251 CNS = test system: U251 CNS
NCI-H460 lung = test system: NCI-H460 lung
RPMI-8226 leukemia = test system: RPMI-8226 leukemia
KM12 colon = test system: KM12 colon
OVCAR-3 ovarian = test system: OVCAR-3 ovarian
UACC-62 melanoma = test system: UACC-62 melanoma
MOLT-4 leukemia = test system: MOLT-4 leukemia
M14 melanoma = test system: M14 melanoma
IGROV1 ovarian = test system: IGROV1 ovarian
EKVX NSCLC = test system: EKVX NSCLC
LOX IMVI melanoma = test system: LOX IMVI melanoma
HCT-116 colon = test system: HCT-116 colon
TK-10 renal = test system: TK-10 renal
SNB-75 CNS = test system: SNB-75 CNS
UACC-257 melanoma = test system: UACC-257 melanoma
SN12C renal = test system: SN12C renal
RXF 393 renal = test system: RXF 393 renal
SR leukemia = test system: SR leukemia
MCF7 breast = test system: MCF7 breast
HT29 colon = test system: HT29 colon
NCI-H522 lung = test system: NCI-H522 lung
HOP-92 NSCLC = test system: HOP-92 NSCLC
T-47D breast = test system: T-47D breast
SK-OV-3 ovarian = test system: SK-OV-3 ovarian
OVCAR-8 ovarian = test system: OVCAR-8 ovarian
A498 renal = test system: A498 renal
BT-549 breast = test system: BT-549 breast
MDA-MB-231 breast = test system: MDA-MB-231 breast
CCRF-CEM leukemia = test system: CCRF-CEM leukemia
SF-539 CNS = test system: SF-539 CNS
NCI-H226 lung = test system: NCI-H226 lung
SF-268 CNS = test system: SF-268 CNS
NCI-H23 lung = test system: NCI-H23 lung
SK-MEL-2 melanoma = test system: SK-MEL-2 melanoma
HCT-15 colon = test system: HCT-15 colon
SW-620 colon = test system: SW-620 colon
ACHN renal = test system: ACHN renal

Question: `COc1cnc2c(c1)C(=O)c1c-2n(CCCN2CCNCC2)c(=O)c2cc(F)ccc12` was tested. Which GI50 (NCI/ADR-RES ovarian) did it give?
Answer: 865 nM

Question: And the TGI (NCI/ADR-RES ovarian)?
Answer: 4430 nM

Question: And the GI50 (MDA-MB-435)?
Answer: 578 nM

Question: And the TGI (MDA-MB-435)?
Answer: 2010 nM

Question: And the GI50 (PC-3 prostate)?
Answer: 596 nM

Question: What about the TGI (PC-3 prostate) of the same compound?
Answer: 2510 nM

Question: What about the GI50 (K-562 leukemia) of the same compound?
Answer: 148 nM

Question: What about the TGI (K-562 leukemia) of the same compound?
Answer: 1440 nM

Question: What about the GI50 (HCC-2998 colon) of the same compound?
Answer: 1050 nM

Question: And the TGI (HCC-2998 colon)?
Answer: 2560 nM

Question: What about the GI50 (OVCAR-4 ovarian) of the same compound?
Answer: 892 nM

Question: What about the TGI (OVCAR-4 ovarian) of the same compound?
Answer: 2490 nM

Question: And the GI50 (OVCAR-5 ovarian)?
Answer: 334 nM

Question: And the TGI (OVCAR-5 ovarian)?
Answer: 1510 nM

Question: And the GI50 (HL-60(TB) leukemia)?
Answer: 92.7 nM

Question: And the TGI (HL-60(TB) leukemia)?
Answer: 682 nM

Question: What about the GI50 (HS 578T breast) of the same compound?
Answer: 2080 nM

Question: And the TGI (HS 578T breast)?
Answer: 16900 nM

Question: What about the GI50 (HOP-62 NSCLC) of the same compound?
Answer: 66.5 nM

Question: And the TGI (HOP-62 NSCLC)?
Answer: 352 nM

Question: And the GI50 (MALME-3M melanoma)?
Answer: 1130 nM

Question: What about the TGI (MALME-3M melanoma) of the same compound?
Answer: 2560 nM

Question: And the GI50 (786-0 renal)?
Answer: 127 nM

Question: What about the TGI (786-0 renal) of the same compound?
Answer: 511 nM

Question: What about the GI50 (SK-MEL-5 melanoma) of the same compound?
Answer: 217 nM

Question: What about the TGI (SK-MEL-5 melanoma) of the same compound?
Answer: 1650 nM

Question: What about the GI50 (COLO 205 colon) of the same compound?
Answer: 150 nM

Question: What about the TGI (COLO 205 colon) of the same compound?
Answer: 1440 nM

Question: And the GI50 (SK-MEL-28 melanoma)?
Answer: 1520 nM

Question: What about the TGI (SK-MEL-28 melanoma) of the same compound?
Answer: 3030 nM

Question: And the GI50 (DU-145 prostate)?
Answer: 62.3 nM

Question: What about the TGI (DU-145 prostate) of the same compound?
Answer: 1150 nM

Question: What about the GI50 (A549 NSCLC) of the same compound?
Answer: 16.4 nM

Question: And the TGI (A549 NSCLC)?
Answer: 219 nM

Question: What about the GI50 (SNB-19 CNS) of the same compound?
Answer: 130 nM

Question: What about the TGI (SNB-19 CNS) of the same compound?
Answer: 1240 nM

Question: What about the GI50 (UO-31 renal) of the same compound?
Answer: 133 nM

Question: What about the TGI (UO-31 renal) of the same compound?
Answer: 1120 nM

Question: What about the GI50 (U251 CNS) of the same compound?
Answer: 84.1 nM

Question: What about the TGI (U251 CNS) of the same compound?
Answer: 1050 nM

Question: What about the GI50 (NCI-H460 lung) of the same compound?
Answer: 25.2 nM

Question: And the TGI (NCI-H460 lung)?
Answer: 275 nM

Question: And the GI50 (RPMI-8226 leukemia)?
Answer: 50.5 nM

Question: And the TGI (RPMI-8226 leukemia)?
Answer: 458 nM

Question: What about the GI50 (KM12 colon) of the same compound?
Answer: 168 nM

Question: And the TGI (KM12 colon)?
Answer: 1160 nM

Question: And the GI50 (OVCAR-3 ovarian)?
Answer: 335 nM

Question: What about the TGI (OVCAR-3 ovarian) of the same compound?
Answer: 1630 nM

Question: And the GI50 (UACC-62 melanoma)?
Answer: 1260 nM

Question: What about the TGI (UACC-62 melanoma) of the same compound?
Answer: 3020 nM

Question: What about the GI50 (MOLT-4 leukemia) of the same compound?
Answer: 27.5 nM

Question: What about the TGI (MOLT-4 leukemia) of the same compound?
Answer: 164 nM

Question: What about the GI50 (M14 melanoma) of the same compound?
Answer: 366 nM

Question: What about the TGI (M14 melanoma) of the same compound?
Answer: 1880 nM

Question: And the GI50 (IGROV1 ovarian)?
Answer: 478 nM

Question: And the TGI (IGROV1 ovarian)?
Answer: 2340 nM

Question: And the GI50 (EKVX NSCLC)?
Answer: 441 nM

Question: What about the TGI (EKVX NSCLC) of the same compound?
Answer: 2080 nM

Question: What about the GI50 (LOX IMVI melanoma) of the same compound?
Answer: 180 nM

Question: What about the TGI (LOX IMVI melanoma) of the same compound?
Answer: 1320 nM

Question: What about the GI50 (HCT-116 colon) of the same compound?
Answer: 91.9 nM

Question: And the TGI (HCT-116 colon)?
Answer: 1310 nM

Question: What about the GI50 (TK-10 renal) of the same compound?
Answer: 267 nM

Question: And the TGI (TK-10 renal)?
Answer: 1430 nM

Question: And the GI50 (SNB-75 CNS)?
Answer: 368 nM

Question: And the TGI (SNB-75 CNS)?
Answer: 2870 nM

Question: And the GI50 (UACC-257 melanoma)?
Answer: 1290 nM

Question: And the TGI (UACC-257 melanoma)?
Answer: 2690 nM

Question: And the GI50 (SN12C renal)?
Answer: 80.6 nM

Question: And the TGI (SN12C renal)?
Answer: 890 nM

Question: What about the GI50 (RXF 393 renal) of the same compound?
Answer: 270 nM

Question: And the TGI (RXF 393 renal)?
Answer: 1730 nM

Question: What about the GI50 (SR leukemia) of the same compound?
Answer: 50 nM

Question: What about the TGI (SR leukemia) of the same compound?
Answer: 863 nM

Question: What about the GI50 (MCF7 breast) of the same compound?
Answer: 34.5 nM

Question: And the TGI (MCF7 breast)?
Answer: 1410 nM

Question: And the GI50 (HT29 colon)?
Answer: 150 nM

Question: What about the TGI (HT29 colon) of the same compound?
Answer: 680 nM

Question: And the GI50 (NCI-H522 lung)?
Answer: 118 nM

Question: What about the TGI (NCI-H522 lung) of the same compound?
Answer: 1350 nM

Question: And the GI50 (HOP-92 NSCLC)?
Answer: 139 nM

Question: What about the TGI (HOP-92 NSCLC) of the same compound?
Answer: 2950 nM

Question: What about the GI50 (T-47D breast) of the same compound?
Answer: 266 nM

Question: What about the TGI (T-47D breast) of the same compound?
Answer: 13200 nM

Question: What about the GI50 (SK-OV-3 ovarian) of the same compound?
Answer: 210 nM

Question: And the TGI (SK-OV-3 ovarian)?
Answer: 916 nM

Question: And the GI50 (OVCAR-8 ovarian)?
Answer: 126 nM

Question: And the TGI (OVCAR-8 ovarian)?
Answer: 1250 nM

Question: And the GI50 (A498 renal)?
Answer: 352 nM

Question: What about the TGI (A498 renal) of the same compound?
Answer: 1900 nM

Question: And the GI50 (BT-549 breast)?
Answer: 1250 nM

Question: What about the TGI (BT-549 breast) of the same compound?
Answer: 4320 nM

Question: What about the GI50 (MDA-MB-231 breast) of the same compound?
Answer: 479 nM

Question: And the TGI (MDA-MB-231 breast)?
Answer: 1940 nM

Question: What about the GI50 (CCRF-CEM leukemia) of the same compound?
Answer: 42.1 nM

Question: What about the TGI (CCRF-CEM leukemia) of the same compound?
Answer: 1060 nM

Question: And the GI50 (SF-539 CNS)?
Answer: 532 nM

Question: And the TGI (SF-539 CNS)?
Answer: 1830 nM

Question: And the GI50 (NCI-H226 lung)?
Answer: 150 nM

Question: And the TGI (NCI-H226 lung)?
Answer: 507 nM

Question: And the GI50 (SF-268 CNS)?
Answer: 282 nM

Question: And the TGI (SF-268 CNS)?
Answer: 1860 nM

Question: What about the GI50 (NCI-H23 lung) of the same compound?
Answer: 233 nM

Question: And the TGI (NCI-H23 lung)?
Answer: 1470 nM

Question: And the GI50 (SK-MEL-2 melanoma)?
Answer: 1710 nM

Question: What about the TGI (SK-MEL-2 melanoma) of the same compound?
Answer: 3370 nM

Question: And the GI50 (HCT-15 colon)?
Answer: 126 nM

Question: And the TGI (HCT-15 colon)?
Answer: 1300 nM

Question: What about the GI50 (SW-620 colon) of the same compound?
Answer: 110 nM

Question: What about the TGI (SW-620 colon) of the same compound?
Answer: 1460 nM

Question: And the GI50 (ACHN renal)?
Answer: 55.3 nM

Question: What about the TGI (ACHN renal) of the same compound?
Answer: 554 nM
